This is an account of results in publication PMC12119673, “Apoptotic cell death induced by copper (II), manganese (II) and silver (I) complexes containing bridging dicarboxylate and 1,10-phenanthroline ligands: one of the multi-modes of anticancer activity?” (Biometals, 2025).

In series [1] the test system is apoptotic genes in MCF-12A cells. In words: Apoptosis-related gene expression, qRT-PCR. The class given is cell-based, human. The conditions noted are these: IC25 concentration, 24 h, relative to negative control. The method, then: (§1) A broad scope of molecular targets involved in the apoptotic pathway were selected for analysis using qRT-PCR including initiators, mediators and inhibitors. These gene targets along with their cellular location and associated primer set are outlined in Table 2. Primer sets for each gene were designed using NCBI nucleotide sequences and the Primer3 application (Table 3). Once designed, the primers were synthesised by Sigma Aldrich, Ireland.
(§2) MCF-7 and MCF-12A cells were seeded at a density of 1 × 10^5 in T25 flasks and incubated for 24 h allowing for attachment. Following incubation, the seeding media was removed, and the cells were washed with PBS. […] Post-exposure, RNA was isolated from the cells. Tri-reagent^Ⓡ (Sigma, Ireland) (Cat# T9424) was added to the cells followed by centrifugation at 300 g for 5 min. The RNA was precipitated using chloroform, followed by centrifugation and washing of the pellet using 75% ethanol. The RNA was resuspended in 30 μl of nuclease-free water. The RNA was either used immediately for qRT-PCR or stored at −80 ℃. The RNA from each sample was quantified using the NanoDrop™ 2000 Spectrophotometer (Thermo Fisher Scientific, Ireland). The A260/A230 ratio was measured to ensure the purity of each sample. Prior to cDNA synthesis, all samples were adjusted to a concentration of 100 ng. The RNA was then reverse transcribed into cDNA using the Quanta Biosciences Kit (Quanta Biosciences, USA) (Cat# 95047). Using the SimpliAmp Thermal Cycler (Applied Biosystems; Thermo Fisher Scientific, Ireland), the following settings were applied: 5 min at 22 ℃, 30 min at 42 ℃, 5 min at 85 ℃; samples were then maintained in an indefinite hold at 4 ℃ prior to being used for quantitative real-time PCR. The cDNA templates were amplified and analysed using SYBR™ Green (Fisher Scientific, UK) (Cat#10187094). Using the 7500 fast Real-Time PCR System (Applied Biosystems, USA), the following thermal cycling setting were applied for amplification: Pre-Incubation (1 cycle) 95 ℃, 5 Minutes, 4.4 ℃ ramp; Amplification (45 cycles) 95 °C 10 s ramp 4.4 °C, 60 °C 10 s ramp 2.2 °C, 72 °C 10 s ramp 4.4 °C; Melting Curve (1 cycle) 95 °C 5 s ramp 4.4 °C, 65 °C 1 min ramp 2.2 °C, 97 °C continuous ramp 0.11 °C acquisition 10 per °C; Cooling (1 cycle) 40 °C 10 s ramp 1.5 °C. Two reference genes, actin and tubulin, were employed to determine the expression of the target genes. No template controls were included to confirm the absence of template contamination and auto-fluorescence. Each PCR plate contained three technical replicates per sample and gene target, with each experiment repeated three independent times using three individual biological replicates.
(§3) qRT-PCR data was analysed by first using the Vandesompele method to calculate the geometric mean of Ct values for the reference genes, actin and tubulin. These values were used for normalisation of the target gene expression values which were then calculated using the Livak and Schmittgen formula: 2^−ΔCt1(test)−ΔCt2(control) (Livak and Schmittgen [2001]; Vandesompele et al. [2002]).
(§4) The expression profiles (Fig. 4) display the log(2) transformed mean expression value for each gene target relative to the negative control. Expression values for each target were determined relative to the geometric means of reference genes. […] Each graph contains a threshold line, set at the value of one, this represents baseline expression levels of genes.
For orientation: Quantitative PCR measures a nucleic acid by following its amplification.

Series [2] concerns apoptotic genes in MCF-7 cells. The series is described as follows: Apoptosis-related gene expression, qRT-PCR. The class given is cell-based, human. As to conditions: MCF-7, IC25 concentration, 24 h, relative to negative control. The method, then: as §1, §2, §3, §4
In series [3] the test system is caspase-3/7 in MCF-7 cells. The series is described as follows: Caspase 3/7 expression, FLICA (FAM-DEVD-FMK) flow cytometry. As to conditions: MCF-7, IC25 concentration, 24 h. Type of series: cell-based, human. The method, then:
The expression of caspase-3/7 in MCF-7 and MCF-12A cells was determined using the VybrantTM FAM™ Caspase-3 and Caspase-7 Assay Kit (Cat# V35118) (Thermo Fisher Scientific, Ireland). Cells were seeded at a density of 1 × 10^5 in T25 flasks and incubated in routine conditions for 24 h. […] Post-exposure, the cells were harvested for staining.
Flow cytometry data analysis was performed with the CytExpert package (Ver. 2.4) (Beckman Coulter, USA) and Microsoft^Ⓡ Excel (USA). The mean MFI and percentage cells were calculated using these packages, followed by one-way ANOVA analysis with post hoc Bonferroni correction using GraphPad Prism (Ver. 9.4) (GraphPad, USA).
The expression of caspase-3/7 was analysed in MCF-7 and MCF-12A cells using fluorescent labelled inhibitors of caspase (FLICA): FAM-DEVD-FMK. […] Following the apoptosis induction study, it was of interest to determine whether the complexes were stimulating the executioner caspases triggering the irreversible proteolytic degradation of cells, culminating in cell death. […] These three complexes were selected based on their structural similarities, while incorporating alternative metal centres.
A general note: In flow cytometry, cells or beads pass a laser one at a time.

In another series the test system is Galleria Mellonella. Also on record: method as in Kellett et al. [2011]; Slator et al. [2017]. The conditions noted are these: ref Kellett et al. [2011], Slator et al. [2017]; cited from earlier work.
In the next series the test system is HaCaT cells. Also on record: method as in Kellett et al. [2011]; Slator et al. [2017]. As to conditions: HaCaT vs colorectal cancer lines; ref Kellett et al. [2011]; Slator et al. [2017]; cited from earlier work.
The test system of a further series is HT29, SW480 and SW620. Also on record: method as in Kellett et al. [2011]; Slator et al. [2017]. As to conditions: ref Kellett et al. [2011], Slator et al. [2017]; cited from earlier work.

Consider `N.N.[Cl][Pt][Cl]` [Cisplatin, reference compound], for which the “Caspase gene expression (caspase-9, -8, -3)” value in series [1] and in series [2] was “all caspases seen to be activated” throughout. The “Pro-apoptotic gene expression (BID, BIM, BAD, BAX)” value in series [1] was “pro-apoptotic BIM and BAD were upregulated”; in series [2], “pro-apoptotic BIM and BAD were upregulated”. In addition, the “Expression of caspase-3/7 (% cells)” value in series [3] is on record as “lowest expression levels”.
Consider `O.O.O=C([O-])CCCCCCC(=O)[O-].[Mn+2].[Mn+2].c1cnc2c(c1)ccc1cccnc12.c1cnc2c(c1)ccc1cccnc12.c1cnc2c(c1)ccc1cccnc12.c1cnc2c(c1)ccc1cccnc12` [[Mn2(μ-oda)(phen)4(H2O)2]^2+], for which the In vivo tolerance result in the series with Galleria Mellonella is given as “well-tolerated”. For the same compound, in the series on HaCaT cells, the “Reduction in potency towards non-cancerous cells” value is “almost tenfold reduction in potency”. Moreover, the “Cytotoxicity towards colorectal cancers” value with HT29, SW480 and SW620 is recorded as “nano-molar cytotoxicity”.
